Experimental data as given in US8614201B2 (Janssen Pharmaceutica NV, priority 2009, dated 2013).
pIC50: −log10 of the molar value.

Target: Human TRPA1 (Homo sapiens, UniProt O75762)
Assay: Alternative TRPA1 Ca2+ fluorometry assay (hTRPA1/TREx-HEK293 cells, Fluo-4, FDSS 6000)
Assay type: cell-based
Design: expressed in transfected cells
Conditions: Fluo-4-AM, agonist 6,11-dihydro-5H-dibenzo[b,e]azepine-10-carboxylic acid methyl ester 25 nM, procedure used for Examples 184, 190 to 192, 194 to 316
Experimental: In alternative embodiments, the assay was performed using the following procedure for Examples 184, 190 to 192, and 194 to 316:
The human TRPA1 gene was cloned into the pT-Rex-Dest30 inducible vector and stably transfected in T-Rex™-293 cells (Invitrogen, Merelbeke, Belgium). This tetracycline inducible hTRPA1 expression system was used in order to prevent CA^2+ overload in the cultured cells due to sustained TRPA1 expression. hTRPA1/TREx-HEK293 cells (referred to as jTRPA1 cells in the following text) were maintained under standard sterile cell culture conditions. The culture medium for the jTRPA1-HEK cells was DMEN (Gibco BRL, Invitrogen, Merelbeke, Belgium) supplemented with 5 g/l gengticin (Gibco), 5 mL/l blasticidin (Invitorgen), 14.6 g/l L-Glutamine (200 mMl; Gibco), 5 g/l penicillin/streptomycin (5.10-6 IU/I, Gibco), 5.5 g/l pyruvic acid (Gibco) and 10% foetal calf serum (Hyclone, Logan Utah, USA).
For Ca^2+ fluorometry experiments, hTRPA1-HEK cells were resuspended in HBSS seeding medium: HBSS (with CaCl2 and MgCl2: Gibco) supplemented with 14.6 g/l L-Glutamine (200 mM; Gibco), 5 g/l penicillin/streptomycin (5.10-6 IU/l. Gibco), 5.5 g/l pyruvic acid (Gibco) and 10% foetal calf serum (heat inactivated for 30 minutes at 56° C.; Hyclone, Logan Utah, USA). The cells were seeded in poly-D-lysine-coated 384-well round bottom polypropylene plates (Costar Corning, Data Packaging, Cambridge Mass., USA) at 12000 cells/well. Fifty ng/ml tetracycline was added to induce the hTRPA1 expression 24 h before the experiment.
The cells were loaded with 5 mg/l Fluo-4-AM (Molecular Probes, Invitorgen, Merelbeke, Belgium) dissolved in HBSS seeding medium supplemented with 0.7 g/l Probenecid (Sigma) and incubated for 1 h at 37° C. and subsequently at 20° C. for 1 to 2 h. The fluorescence was measured in the FDSS 6000 imaging based plate reader (Hamamutsu Photonics K.K., Hamamutsu City, Japan). The excitation wavelength was 488 nm and the emission wavelength 540 nm. After a control period of 12 seconds the inventive compounds were added and the Ca^2+ signal was measured within 14 minutes after application. Finally, a TRPA1 agonist, 6,11-dihydro-5H-dibenzo[b,e]azepine-10-carboxylic acid methyl ester, was added at a final concentration of 25 nM. The emission ratio was calculated by dividing the emission signal (Em540) by the first EM540 signal of the control period to compensate for the background fluorescence. […] For intracellular Ca^2+ measurements, a compound stock solution (10 to 100 mM) was further diluted in DMSO in order to obtain a final 1% DMSO concentration in the extracellular solution.

Human TRPA1, sequence (O75762 whole entry): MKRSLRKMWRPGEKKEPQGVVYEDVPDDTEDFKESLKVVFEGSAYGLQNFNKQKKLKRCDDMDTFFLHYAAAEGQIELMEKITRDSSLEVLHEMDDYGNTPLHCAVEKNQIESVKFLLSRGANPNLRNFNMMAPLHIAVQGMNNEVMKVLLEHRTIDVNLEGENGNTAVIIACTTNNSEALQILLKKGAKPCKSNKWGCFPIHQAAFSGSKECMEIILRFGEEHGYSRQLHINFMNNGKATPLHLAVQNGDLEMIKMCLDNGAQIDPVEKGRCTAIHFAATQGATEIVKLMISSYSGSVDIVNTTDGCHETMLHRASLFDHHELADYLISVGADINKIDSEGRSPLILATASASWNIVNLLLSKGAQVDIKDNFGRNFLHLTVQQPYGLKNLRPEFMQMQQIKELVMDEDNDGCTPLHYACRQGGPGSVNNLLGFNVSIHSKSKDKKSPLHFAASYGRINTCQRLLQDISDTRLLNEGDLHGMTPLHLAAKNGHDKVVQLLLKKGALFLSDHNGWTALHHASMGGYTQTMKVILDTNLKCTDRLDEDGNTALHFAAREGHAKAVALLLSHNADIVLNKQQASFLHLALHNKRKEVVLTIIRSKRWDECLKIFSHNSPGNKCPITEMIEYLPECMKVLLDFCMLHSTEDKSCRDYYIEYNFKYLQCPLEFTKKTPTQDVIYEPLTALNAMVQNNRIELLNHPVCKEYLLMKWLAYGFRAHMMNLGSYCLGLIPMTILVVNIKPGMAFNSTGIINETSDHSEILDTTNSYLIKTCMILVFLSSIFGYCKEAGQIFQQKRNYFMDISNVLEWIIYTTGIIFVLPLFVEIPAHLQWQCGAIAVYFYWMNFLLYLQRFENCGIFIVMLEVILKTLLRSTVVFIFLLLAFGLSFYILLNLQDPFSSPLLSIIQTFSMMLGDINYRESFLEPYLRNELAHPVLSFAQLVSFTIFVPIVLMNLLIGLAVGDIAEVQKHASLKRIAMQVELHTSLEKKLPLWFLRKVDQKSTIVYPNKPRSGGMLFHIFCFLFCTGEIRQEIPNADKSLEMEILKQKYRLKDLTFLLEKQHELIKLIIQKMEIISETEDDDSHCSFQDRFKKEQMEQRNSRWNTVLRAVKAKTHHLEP

Row | pIC50 | SMILES
1 | 5.76 | O=C(NCc1cc(-c2ccc(Br)cc2)nc(NCCc2ccccn2)n1)[C@@H]1CCCN1S(=O)(=O)c1ccc(F)cc1 [Example 295, 1-(4-Fluoro-benzenesulfonyl)-pyrrolidine-2S-carboxylic acid [6-(4-bromo-phenyl)-2-(2-pyridin-2-yl-ethylamino)-pyrimidin-4-ylmethyl]-amide]
2 | 6.64 | O=C(NCc1cc(-c2ccc(C(F)(F)F)cc2)nc(N2CCN(c3ccccc3F)CC2)n1)[C@@H]1CCCN1S(=O)(=O)c1ccc(Cl)cc1 [Example 269, 1-(4-Chloro-benzenesulfonyl)-pyrrolidine-2S-carboxylic acid [2-[4-(2-fluoro-phenyl)-piperazin-1-yl]-6-(4-trifluoromethyl-phenyl)-pyrimidin-4-ylmethyl]-amide]
3 | ~5.35 | CN1CCN(c2nc(CNC(=O)[C@@H]3CCCN3S(=O)(=O)c3ccc(F)cc3)cc(-c3ccc(Br)cc3)n2)CC1 [Example 220, 1-(4-Fluoro-benzenesulfonyl)-pyrrolidine-2S-carboxylic acid [6-(4-bromo-phenyl)-2-(4-methyl-piperazin-1-yl)-pyrimidin-4-ylmethyl]-amide]
4 | < 5.00 | Cc1cc(C)c(S(=O)(=O)N2CCC[C@H]2C(=O)NCc2cc(-c3ccc(C(F)(F)F)cc3)nc(N3CCN(c4ccccc4F)CC3)n2)c(C)c1 [Example 275, 1-(2,4,6-Trimethyl-benzenesulfonyl)-pyrrolidine-2-carboxylic acid [2-[4-(2-fluoro-phenyl)-piperazin-1-yl]-6-(4-trifluoromethyl-phenyl)-pyrimidin-4-ylmethyl]-amide]
5 | < 5.00 | COc1ccc(S(=O)(=O)N2CCC[C@H]2C(=O)NCc2cc(-c3ccc(C(F)(F)F)cc3)nc(N3CCN(c4ccccc4F)CC3)n2)cc1 [Example 255, 1-(4-Methoxy-benzenesulfonyl)-pyrrolidine-2S-carboxylic acid [2-[4-(2-fluoro-phenyl)-piperazin-1-yl]-6-(4-trifluoromethyl-phenyl)-pyrimidin-4-ylmethyl]-amide]
6 | 5.34 | O=C(NCc1cc(-c2ccc(Br)cc2)nc(N[C@@H](CO)Cc2ccccc2)n1)[C@@H]1CCCN1S(=O)(=O)c1ccc(F)cc1 [Example 210, 1-(4-Fluoro-benzenesulfonyl)-pyrrolidine-2S-carboxylic acid [6-(4-bromo-phenyl)-2-(1S-hydroxymethyl-2-phenyl-ethylamino)-pyrimidin-4-ylmethyl]-amide]
7 | ~6.80 | O=C(NCc1cc(-c2ccc(C(F)(F)F)cc2)nc(N2CCN(c3ccccc3F)CC2)n1)[C@@H]1CCCN1S(=O)(=O)c1ccc(F)cc1 [Example 286, 1-(4-Fluoro-benzenesulfonyl)-pyrrolidine-2S-carboxylic acid [2-[4-(2-fluoro-phenyl)-piperazin-1-yl]-6-(4-trifluoromethyl-phenyl)-pyrimidin-4-ylmethyl]-amide]
8 | 5.75 | CC(C)[C@@H](CO)Nc1nc(CNC(=O)[C@@H]2CCCN2S(=O)(=O)c2ccc(F)cc2)cc(-c2ccc(C(F)(F)F)cc2)n1 [Example 308, 1-(4-Fluoro-benzenesulfonyl)-pyrrolidine-2S-carboxylic acid [2-(1-hydroxymethyl-2-methyl-propylamino)-6-(4-trifluoromethyl-phenyl)-pyrimidin-4-ylmethyl]-amide]
9 | ~6.03 | O=C(NCc1cc(-c2ccc(C(F)(F)F)cc2)nc(N2CCN(c3ccccc3F)CC2)n1)[C@@H]1CCCN1S(=O)(=O)c1cccs1 [Example 264, 1-(Thiophene-2-sulfonyl)-pyrrolidine-2S-carboxylic acid [2-[4-(2-fluoro-phenyl)-piperazin-1-yl]-6-(4-trifluoromethyl-phenyl)-pyrimidin-4-ylmethyl]-amide]
10 | ~6.45 | O=C(NCc1cc(-c2ccc(C(F)(F)F)cc2)nc(NC2CCc3ccccc32)n1)[C@@H]1CCCN1S(=O)(=O)c1ccc(F)cc1 (stereo partly drawn) [Example 307, 1-(4-Fluoro-benzenesulfonyl)-pyrrolidine-2S-carboxylic acid [2-(indan-1-ylamino)-6-(4-trifluoromethyl-phenyl)-pyrimidin-4-ylmethyl]-amide]

The next lines start with the compound.

Row | SMILES | pIC50
11 | CC1CCN(c2nc(CNC(=O)[C@@H]3CCCN3S(=O)(=O)c3ccc(F)cc3)cc(-c3ccc4c(c3)OCO4)n2)CC1 [Example 306, 1-(4-Fluoro-benzenesulfonyl)-pyrrolidine-2S-carboxylic acid [6-benzo[1,3]dioxol-5-yl-2-(4-methyl-piperidin-1-yl)-pyrimidin-4-ylmethyl]-amide] | ~5.68
12 | CN1CCN(C(=O)c2ccc(Nc3nc(CNC(=O)[C@@H]4CCCN4S(=O)(=O)c4ccc(F)cc4)cc(-c4ccc5c(c4)OCO5)n3)cc2)CC1 [Example 288, 1-(4-Fluoro-benzenesulfonyl)-pyrrolidine-2S-carboxylic acid {6-benzo[1,3]dioxol-5-yl-2-[4-(4-methyl-piperazine-1-carbonyl)-phenylamino]-pyrimidin-4-ylmethyl}-amide] | < 5.00
13 | COc1cccc(OC)c1-c1cc(CNC(=O)[C@@H]2CCCN2S(=O)(=O)c2ccc(F)cc2)nc(N2CCN(c3ccccc3F)CC2)n1 [Example 228, 1-(4-Fluoro-benzenesulfonyl)-pyrrolidine-2S-carboxylic acid {6-(2,6-dimethoxy-phenyl)-2-[4-(2-fluoro-phenyl)-piperazin-1-yl]-pyrimidin-4-ylmethyl}-amide] | 5.64
14 | COc1ccc(F)cc1-c1cc(CNC(=O)[C@@H]2CCCN2S(=O)(=O)c2ccc(F)cc2)nc(N2CCN(c3ccccc3F)CC2)n1 [Example 230, 1-(4-Fluoro-benzenesulfonyl)-pyrrolidine-2S-carboxylic acid {6-(5-fluoro-2-methoxy-phenyl)-2-[4-(2-fluoro-phenyl)-piperazin-1-yl]-pyrimidin-4-ylmethyl}-amide] | 5.89
15 | O=C(NCc1cc(-c2cccc(OC(F)(F)F)c2)nc(N2CCN(c3ccccc3F)CC2)n1)[C@@H]1CCCN1S(=O)(=O)c1ccc(F)cc1 [Example 234, 1-(4-Fluoro-benzenesulfonyl)-pyrrolidine-2S-carboxylic acid [2-[4-(2-fluoro-phenyl)-piperazin-1-yl]-6-(3-trifluoromethoxy-phenyl)-pyrimidin-4-ylmethyl]-amide] | < 5.00
16 | N#Cc1cccc(-c2cc(CNC(=O)[C@@H]3CCCN3S(=O)(=O)c3ccc(F)cc3)nc(N3CCN(c4ccccc4F)CC3)n2)c1 [Example 235, 1-(4-Fluoro-benzenesulfonyl)-pyrrolidine-2S-carboxylic acid {6-(3-cyano-phenyl)-2-[4-(2-fluoro-phenyl)-piperazin-1-yl]-pyrimidin-4-ylmethyl}-amide] | 5.23
17 | O=C(NCc1cc(-c2ccc3c(c2)OCO3)nc(N2CCN(c3ccccc3F)CC2)n1)[C@@H]1CCCN1S(=O)(=O)c1ccc(F)cc1 [Example 238, 1-(4-Fluoro-benzenesulfonyl)-pyrrolidine-2S-carboxylic acid {6-benzo[1,3]dioxol-5-yl-2-[4-(2-fluoro-phenyl)-piperazin-1-yl]-pyrimidin-4-ylmethyl}-amide] | 5.89
18 | O=C(NCc1cc(-c2ccc(F)c(Cl)c2)nc(N2CCN(c3ccccc3F)CC2)n1)[C@@H]1CCCN1S(=O)(=O)c1ccc(F)cc1 [Example 244, 1-(4-Fluoro-benzenesulfonyl)-pyrrolidine-2-carboxylic acid {6-(3-chloro-4-fluoro-phenyl)-2-[4-(2-fluoro-phenyl)-piperazin-1-yl]-pyrimidin-4-ylmethyl}-amide] | < 5.00
19 | Cc1ccccc1-c1cc(CNC(=O)[C@@H]2CCCN2S(=O)(=O)c2ccc(F)cc2)nc(N2CCN(c3ccccc3F)CC2)n1 [Example 247, 1-(4-Fluoro-benzenesulfonyl)-pyrrolidine-2S-carboxylic acid {2-[4-(2-fluoro-phenyl)-piperazin-1-yl]-6-o-tolyl-pyrimidin-4-ylmethyl}-amide] | ~5.84
20 | O=C(NCc1cc(-c2cc(F)cc(F)c2)nc(N2CCN(c3ccccc3F)CC2)n1)[C@@H]1CCCN1S(=O)(=O)c1ccc(F)cc1 [Example 249, 1-(4-Fluoro-benzenesulfonyl)-pyrrolidine-2S-carboxylic acid {6-(3,5-difluoro-phenyl)-2-[4-(2-fluoro-phenyl)-piperazin-1-yl]-pyrimidin-4-ylmethyl}-amide] | 5.80
